Source: the supplement of paper PMC7021759
± gives the standard deviation of the averaged measurements.

Tested on: SK-N-MM (SKNMM-MYCN, doxycycline-inducible MYCN)
Test: area under dose-response curve (CellTiter-Glo viability normalised to plate controls) (AUC (arbitrary units)); higher = more loss of viability; extreme values may be limits of the assay
Procedure, shortened: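 Compounds were pin-transferred as 10-point 1:3 dilution series (890-fold stock dilution) onto SK-N-MM cells with doxycycline-inducible MYCN, plated at 1250 cells/100 μL in 96-well plates and switched about 24 h after plating to medium with or without doxycycline two days before dosing. Dosing was repeated on day 4, and CellTiter-Glo luminescence was read 3 or 8 days after drugging. Area under the dose-response curve came from log2 signals normalised to the positive and negative controls on each plate.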

[1] = MYCN induction (doxycycline): +doxycycline (MYCN induced), time after drugging: 8 days
[2] = MYCN induction (doxycycline): no doxycycline (MYCN not induced), time after drugging: 3 days
[3] = MYCN induction (doxycycline): no doxycycline (MYCN not induced), time after drugging: 8 days
[4] = MYCN induction (doxycycline): +doxycycline (MYCN induced), time after drugging: 3 days

With `COc1ccc(-c2cc(=O)c3c(O)cc(O)c(-c4cc(-c5cc(=O)c6c(O)cc(O)cc6o5)ccc4OC)c3o2)cc1` [ISOGINKGETIN] the “area under dose-response curve” value [1] was 61.2, the “area under dose-response curve” value [2] was 15.4 and the “area under dose-response curve” value [3] was 24.2.
With `CO[C@@]12[C@H](COC(N)=O)C3=C(C(=O)C(C)=C(N)C3=O)N1C[C@@H]1N[C@@H]12` [MITOMYCIN C] the “area under dose-response curve” value [4] was 11.1, the “area under dose-response curve” value [1] was 100 and the “area under dose-response curve” value [2] was 4.39. For the same compound, the “area under dose-response curve” value [3] was 78.3.
With `CC(=O)O[C@H]1CC[C@@]2(C)C(=CC[C@@H]3[C@@H]2CC[C@]2(C)C(c4cccnc4)=CC[C@@H]32)C1` [ABIRATERONE ACETATE] the “area under dose-response curve” value [4] was 8.14, the “area under dose-response curve” value [1] was 0 and the “area under dose-response curve” value [2] was 6.74. The “area under dose-response curve” value [3] was 0.368.
For `CC1(C)CNc2cc(NC(=O)c3cccnc3NCc3ccncc3)ccc21` [MOTESANIB DIPHOSPHATE], the “area under dose-response curve” value [4] was 0, the “area under dose-response curve” value [1] was 0 and the “area under dose-response curve” value [2] was 5.62. For the same compound, the “area under dose-response curve” value [3] was 0.
In the case of `NC(=O)Nc1cc(-c2cccc(F)c2)sc1C(=O)N[C@H]1CCCNC1` [AZD-7762], the “area under dose-response curve” value [4] is reported as 139, the “area under dose-response curve” value [1] is reported as 244 and the “area under dose-response curve” value [2] is reported as 75.8. The “area under dose-response curve” value [3] was 141.
`CNC(=O)c1cc(Oc2ccc(NC(=O)Nc3ccc(Cl)c(C(F)(F)F)c3)c(F)c2)ccn1` [REGORAFENIB] was tested, and the “area under dose-response curve” value [4] was 30.6, the “area under dose-response curve” value [1] was 47.7 and the “area under dose-response curve” value [2] was 18.8. For the same compound, the “area under dose-response curve” value [3] was 61.4.
`O=C(Nc1c[nH]nc1-c1nc2ccc(CN3CCOCC3)cc2[nH]1)NC1CC1` [AT9283] was tested, and the “area under dose-response curve” value [4] was 91, the “area under dose-response curve” value [1] was 206 and the “area under dose-response curve” value [2] was 42.9. For the same compound, the “area under dose-response curve” value [3] was 145.
`Cc1oncc1C(=O)Nc1ccc(C(F)(F)F)cc1` [LEFLUNOMIDE] was tested, and the “area under dose-response curve” value [4] was 0, the “area under dose-response curve” value [1] was 5.53 and the “area under dose-response curve” value [2] was 0. For the same compound, the “area under dose-response curve” value [3] was 16.7.
In the case of `CC(/C=C/C(=O)NO)=C\[C@@H](C)C(=O)c1ccc(N(C)C)cc1` [TRICHOSTATIN A], the “area under dose-response curve” value [4] is reported as 159, the “area under dose-response curve” value [1] is reported as 310 and the “area under dose-response curve” value [2] is reported as 124. The “area under dose-response curve” value [3] was 282.
`COc1cc2nc(N3CCCN(C)CC3)nc(NC3CCN(Cc4ccccc4)CC3)c2cc1OC` was tested, and the “area under dose-response curve” value [4] was 195, the “area under dose-response curve” value [1] was 247 and the “area under dose-response curve” value [2] was 194. For the same compound, the “area under dose-response curve” value [3] was 243.
For `COc1cc2nccc(Oc3ccc(NC(=O)C4(C(=O)Nc5ccc(F)cc5)CC4)cc3)c2cc1OC` [CABOZANTINIB], the “area under dose-response curve” value [4] was 0, the “area under dose-response curve” value [1] was 0 and the “area under dose-response curve” value [2] was 0. For the same compound, the “area under dose-response curve” value [3] was 0.
With `O=C1c2c(O)ccc(O)c2C(=O)c2c(NCCNCCO)ccc(NCCNCCO)c21` [MITOXANTHRONE] the “area under dose-response curve” value [4] was 166, the “area under dose-response curve” value [1] was 325 and the “area under dose-response curve” value [2] was 119. The “area under dose-response curve” value [3] was 258.
In the case of `C=CCn1c(=O)c2cnc(Nc3ccc(N4CCN(C)CC4)cc3)nc2n1-c1cccc(C(C)(C)O)n1` [MK-1775], the “area under dose-response curve” value [4] is reported as 105 ± 20, the “area under dose-response curve” value [1] is reported as 159 ± 26 and the “area under dose-response curve” value [2] is reported as 42.5 ± 14. The “area under dose-response curve” value [3] was 98.1 ± 4.8.
In the case of `Nc1nc(Cl)nc2c1ncn2[C@@H]1O[C@H](CO)[C@@H](O)[C@@H]1F` [CLOFARABINE], the “area under dose-response curve” value [4] is reported as 67.5, the “area under dose-response curve” value [1] is reported as 248 and the “area under dose-response curve” value [2] is reported as 43. The “area under dose-response curve” value [3] was 141.
In the case of `CCN(CCCOc1ccc2c(Nc3cc(CC(=O)Nc4cccc(F)c4)[nH]n3)ncnc2c1)CCOP(=O)(O)O` [BARASERTIB], the “area under dose-response curve” value [4] is reported as 19.5, the “area under dose-response curve” value [1] is reported as 92.2 and the “area under dose-response curve” value [3] is reported as 33.5.
With `CN(N=O)C(=O)N[C@H]1C(O)O[C@H](CO)[C@@H](O)[C@@H]1O` (mixture of isomers) [STREPTOZOSIN] the “area under dose-response curve” value [4] was 0, the “area under dose-response curve” value [1] was 0 and the “area under dose-response curve” value [2] was 0.
For `COc1cc(F)ccc1-c1ncnc(Nc2cccc(CS(C)(=N)=O)c2)n1` (configuration not stated), the “area under dose-response curve” value [4] was 50.3, the “area under dose-response curve” value [1] was 123 and the “area under dose-response curve” value [2] was 34. The “area under dose-response curve” value [3] was 131.
With `Cc1ccc(NC(=O)c2ccc(CN3CCN(C)CC3)cc2)cc1Nc1nc(-c2cccnc2)cs1` [MASITINIB] the “area under dose-response curve” value [4] was 0, the “area under dose-response curve” value [1] was 0 and the “area under dose-response curve” value [2] was 0. For the same compound, the “area under dose-response curve” value [3] was 2.84.
`O=c1cc(-c2cccc3c2Sc2ccccc2S3)oc(N2CCOCC2)c1` was tested, and the “area under dose-response curve” value [2] was 16.3.
In the case of `C=C1[C@@H](O)[C@@H]2O[C@]3(CC[C@H](/C=C/[C@@H](C)[C@@H]4CC(C)=C[C@@]5(O[C@H](C[C@@](C)(O)C(=O)O)CC[C@H]5O)O4)O3)CC[C@H]2O[C@@H]1[C@@H](O)C[C@H](C)[C@H]1O[C@@]2(CCCCO2)CC[C@H]1C` [OKADAIC ACID], the “area under dose-response curve” value [4] is reported as 204, the “area under dose-response curve” value [1] is reported as 277 and the “area under dose-response curve” value [2] is reported as 167. The “area under dose-response curve” value [3] was 266.
In the case of `COc1cc2c(Oc3ccc(NC(=O)C4(C(=O)Nc5ccc(F)cc5)CC4)cc3F)ccnc2cc1OCCCN1CCOCC1` [FORETINIB], the “area under dose-response curve” value [4] is reported as 167, the “area under dose-response curve” value [1] is reported as 170 and the “area under dose-response curve” value [2] is reported as 144. For the same compound, the “area under dose-response curve” value [3] was 140.
For `CNC(=O)c1ccccc1Sc1ccc2c(/C=C/c3ccccn3)n[nH]c2c1` [AXITINIB], the “area under dose-response curve” value [4] was 52.9, the “area under dose-response curve” value [1] was 109 and the “area under dose-response curve” value [2] was 32.4. For the same compound, the “area under dose-response curve” value [3] was 69.7.
For `Cc1c(-c2c(-c3ccc(F)o3)sc3ncnc(O[C@H](Cc4ccccc4OCc4ccnn4CC(F)(F)F)C(=O)O)c23)ccc(OCCN2CCN(C)CC2)c1Cl`, the “area under dose-response curve” value [1] was 7.67.
With `Cc1cc(Nc2ccc(NC(=O)c3ccc(Nc4ccnc5ccccc45)cc3)cc2)nc(N)n1` [SGI-1027] the “area under dose-response curve” value [4] was 80.5, the “area under dose-response curve” value [1] was 201 and the “area under dose-response curve” value [2] was 26.5. The “area under dose-response curve” value [3] was 105.
With `COc1cc2c(cc1-c1c(C)noc1C)ncc1[nH]c(=O)n([C@H](C)c3ccccn3)c12` [I-BET151] the “area under dose-response curve” value [4] was 10.5, the “area under dose-response curve” value [1] was 46.3 and the “area under dose-response curve” value [2] was 14.6. The “area under dose-response curve” value [3] was 36.3.
For `Cn1nccc1Nc1nccc(-c2ccn([C@H](CO)c3ccc(Cl)c(F)c3)c(=O)c2)n1` [GDC-0994], the “area under dose-response curve” value [4] was 0, the “area under dose-response curve” value [1] was 0 and the “area under dose-response curve” value [2] was 2.52. The “area under dose-response curve” value [3] was 0.
In the case of `Clc1ccc(NN=C(c2ccccc2)c2ccccn2)nc1` [JIB-04], the “area under dose-response curve” value [4] is reported as 33.4, the “area under dose-response curve” value [1] is reported as 152 and the “area under dose-response curve” value [2] is reported as 17.8. For the same compound, the “area under dose-response curve” value [3] was 37.1.
In the case of `N#CN=C(NCCCCCCOc1ccc(Cl)cc1)Nc1ccncc1` [GMX-1778], the “area under dose-response curve” value [4] is reported as 172, the “area under dose-response curve” value [1] is reported as 348 and the “area under dose-response curve” value [2] is reported as 119. The “area under dose-response curve” value [3] was 338.
With `Cc1cn(-c2cc(NC(=O)c3ccc(C)c(Nc4nccc(-c5cccnc5)n4)c3)cc(C(F)(F)F)c2)cn1` [NILOTINIB] the “area under dose-response curve” value [4] was 2.25, the “area under dose-response curve” value [1] was 2.7 and the “area under dose-response curve” value [2] was 2.22. The “area under dose-response curve” value [3] was 3.03.
For `CCOc1ccn(-c2ccc(F)cc2)c(=O)c1C(=O)Nc1ccc(Oc2ccnc(N)c2Cl)c(F)c1`, the “area under dose-response curve” value [4] was 0, the “area under dose-response curve” value [1] was 0 and the “area under dose-response curve” value [2] was 4.76. The “area under dose-response curve” value [3] was 74.3.
For `CN1C(=O)[C@@]23C[C@]4([C@]56C[C@@]78SS[C@@](CO)(C(=O)N7[C@H]5Nc5ccccc56)N(C)C8=O)c5ccccc5N[C@@H]4N2C(=O)[C@]1(CO)SS3` [CHAETOCIN], the “area under dose-response curve” value [4] was 327, the “area under dose-response curve” value [1] was 374 and the “area under dose-response curve” value [2] was 349. For the same compound, the “area under dose-response curve” value [3] was 373.
For `CC[C@]1(O)C[C@H]2CN(CCc3c([nH]c4ccccc34)[C@@](C(=O)OC)(c3cc4c(cc3OC)N(C=O)[C@H]3[C@@](O)(C(=O)OC)[C@H](OC(C)=O)[C@]5(CC)C=CCN6CC[C@]43[C@@H]65)C2)C1` [VINCRISTINE], the “area under dose-response curve” value [4] was 185, the “area under dose-response curve” value [1] was 253 and the “area under dose-response curve” value [2] was 89.2. For the same compound, the “area under dose-response curve” value [3] was 146.
For `NC1(c2ccc(-c3nc4ccn5c(=O)[nH]nc5c4cc3-c3ccccc3)cc2)CCC1` [MK-2206], the “area under dose-response curve” value [1] was 0, the “area under dose-response curve” value [2] was 81.6 and the “area under dose-response curve” value [3] was 149.
`C[C@H]1C[C@H]2[C@@H]3CCC4=CC(=O)C=C[C@]4(C)[C@@]3(F)[C@@H](O)C[C@]2(C)[C@@]1(O)C(=O)CO` [BETAMETHASONE] was tested, and the “area under dose-response curve” value [4] was 0, the “area under dose-response curve” value [1] was 0 and the “area under dose-response curve” value [2] was 0.
For `COc1cc2c(NC3CCN(C(C)C)CC3)nc(N3CCC(F)(F)CC3)nc2cc1OCCCN1CCCC1` [UNC0642], the “area under dose-response curve” value [4] was 0, the “area under dose-response curve” value [1] was 203 and the “area under dose-response curve” value [2] was 1.33. For the same compound, the “area under dose-response curve” value [3] was 145.
With `Cn1cc(-c2cnn3c(N)c(Br)c([C@@H]4CCCNC4)nc23)cn1` the “area under dose-response curve” value [4] was 67.2, the “area under dose-response curve” value [1] was 122 and the “area under dose-response curve” value [2] was 31.4. For the same compound, the “area under dose-response curve” value [3] was 74.9.
With `O=C(CCCCCCC(=O)Nc1ccccc1)NO` [VORINOSTAT] the “area under dose-response curve” value [4] was 78.4, the “area under dose-response curve” value [1] was 191 and the “area under dose-response curve” value [2] was 58.2. For the same compound, the “area under dose-response curve” value [3] was 145.
In the case of `CC(=O)Nc1cccc(-n2c(=O)n(C3CC3)c(=O)c3c(Nc4ccc(I)cc4F)n(C)c(=O)c(C)c32)c1` [TRAMETINIB], the “area under dose-response curve” value [4] is reported as 54.2, the “area under dose-response curve” value [1] is reported as 206 and the “area under dose-response curve” value [2] is reported as 42.4. For the same compound, the “area under dose-response curve” value [3] was 152.
With `O=C(NC[C@H](O)CN1CCc2ccccc2C1)c1ccnc(NC2CCC2)c1` the “area under dose-response curve” value [1] was 23.4.
